Experimental findings from US20240299387A1, “HETEROCYCLIC EGFR INHIBITORS FOR USE IN THE TREATMENT OF CANCER” (Blueprint Medicines Corporation, priority 2021, published 2024) are described below.

A value given as a limit tells only on which side of the number the result lay.

For one assay, the target named is T1, EGFR (L858R T790M C797S) (Homo sapiens, UniProt P00533, C797S/L858R/T790M).
T1 construct: purchased SignalChem E10-122VG
The assay is described as follows: Biochemical EGFR inhibition assay (Caliper mobility shift), EGFR LRTMCS mutant. The note with it: LRTMCS (PH) IC50 (nM) @ 1 mM ATP (Num). An outline of the steps:
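Apparent IC50s were derived by plotting percent activity against the log of compound concentration. Activity was measured as phosphopeptide electrophoretically separated from substrate, after reactions at room temperature reached 10% to 20% phosphorylation and were halted with 35 mM EDTA.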

The target in assay [1] is T2, EGFR L858R T790M in NCI-H1975 cell line (Homo sapiens, UniProt P00533, L858R/T790M).
T2 construct: host or cells: NCI-H1975
Description: NCI-H1975 pEGFR AlphaLISA assay. It counts as cell-based. The note with it: NCI-H1975 cells (EGFR L858R T790M), p-EGFR (Tyr1068), 4-5 hours incubation; read-out: Ext pEGFR H1975 GMean IC50 (nM) Protocol: @Pharmaron AlphaLISA (Num). An outline of the steps: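 Phospho-EGFR measured by AlphaLISA after overnight donor-bead incubation; IC50 from percent pEGFR inhibition versus log concentration.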

T2 sequence (P00533 25-1210 T790M/L858R): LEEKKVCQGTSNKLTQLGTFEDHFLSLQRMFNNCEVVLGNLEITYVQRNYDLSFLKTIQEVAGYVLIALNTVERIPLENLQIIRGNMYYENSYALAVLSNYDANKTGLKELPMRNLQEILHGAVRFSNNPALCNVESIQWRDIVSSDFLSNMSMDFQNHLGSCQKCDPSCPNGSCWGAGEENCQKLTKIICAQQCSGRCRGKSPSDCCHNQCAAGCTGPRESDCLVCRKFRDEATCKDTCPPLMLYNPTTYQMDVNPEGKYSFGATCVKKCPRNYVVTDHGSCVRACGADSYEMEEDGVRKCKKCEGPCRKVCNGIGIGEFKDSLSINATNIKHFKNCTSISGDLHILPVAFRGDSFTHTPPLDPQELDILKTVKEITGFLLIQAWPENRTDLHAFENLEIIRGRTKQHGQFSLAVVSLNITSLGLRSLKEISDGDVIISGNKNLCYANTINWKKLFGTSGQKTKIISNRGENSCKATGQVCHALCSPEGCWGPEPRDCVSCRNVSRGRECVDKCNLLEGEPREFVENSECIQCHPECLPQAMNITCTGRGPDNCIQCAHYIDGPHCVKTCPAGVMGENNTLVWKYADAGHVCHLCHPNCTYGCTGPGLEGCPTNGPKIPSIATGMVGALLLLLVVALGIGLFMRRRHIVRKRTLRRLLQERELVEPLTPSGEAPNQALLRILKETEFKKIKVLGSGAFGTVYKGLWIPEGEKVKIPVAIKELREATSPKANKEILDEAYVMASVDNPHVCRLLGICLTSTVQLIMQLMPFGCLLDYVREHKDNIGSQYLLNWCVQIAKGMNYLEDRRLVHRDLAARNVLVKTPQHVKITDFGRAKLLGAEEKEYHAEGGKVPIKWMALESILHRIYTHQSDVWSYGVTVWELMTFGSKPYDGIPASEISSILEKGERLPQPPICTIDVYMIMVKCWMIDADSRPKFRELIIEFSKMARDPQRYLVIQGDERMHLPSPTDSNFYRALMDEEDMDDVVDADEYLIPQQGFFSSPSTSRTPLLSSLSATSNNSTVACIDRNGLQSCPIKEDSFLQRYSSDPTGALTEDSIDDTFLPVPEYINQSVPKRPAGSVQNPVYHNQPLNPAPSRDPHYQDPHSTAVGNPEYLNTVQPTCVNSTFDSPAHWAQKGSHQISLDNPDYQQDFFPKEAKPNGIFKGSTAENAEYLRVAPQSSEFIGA
T1 sequence (P00533 25-1210 T790M/C797S/L858R): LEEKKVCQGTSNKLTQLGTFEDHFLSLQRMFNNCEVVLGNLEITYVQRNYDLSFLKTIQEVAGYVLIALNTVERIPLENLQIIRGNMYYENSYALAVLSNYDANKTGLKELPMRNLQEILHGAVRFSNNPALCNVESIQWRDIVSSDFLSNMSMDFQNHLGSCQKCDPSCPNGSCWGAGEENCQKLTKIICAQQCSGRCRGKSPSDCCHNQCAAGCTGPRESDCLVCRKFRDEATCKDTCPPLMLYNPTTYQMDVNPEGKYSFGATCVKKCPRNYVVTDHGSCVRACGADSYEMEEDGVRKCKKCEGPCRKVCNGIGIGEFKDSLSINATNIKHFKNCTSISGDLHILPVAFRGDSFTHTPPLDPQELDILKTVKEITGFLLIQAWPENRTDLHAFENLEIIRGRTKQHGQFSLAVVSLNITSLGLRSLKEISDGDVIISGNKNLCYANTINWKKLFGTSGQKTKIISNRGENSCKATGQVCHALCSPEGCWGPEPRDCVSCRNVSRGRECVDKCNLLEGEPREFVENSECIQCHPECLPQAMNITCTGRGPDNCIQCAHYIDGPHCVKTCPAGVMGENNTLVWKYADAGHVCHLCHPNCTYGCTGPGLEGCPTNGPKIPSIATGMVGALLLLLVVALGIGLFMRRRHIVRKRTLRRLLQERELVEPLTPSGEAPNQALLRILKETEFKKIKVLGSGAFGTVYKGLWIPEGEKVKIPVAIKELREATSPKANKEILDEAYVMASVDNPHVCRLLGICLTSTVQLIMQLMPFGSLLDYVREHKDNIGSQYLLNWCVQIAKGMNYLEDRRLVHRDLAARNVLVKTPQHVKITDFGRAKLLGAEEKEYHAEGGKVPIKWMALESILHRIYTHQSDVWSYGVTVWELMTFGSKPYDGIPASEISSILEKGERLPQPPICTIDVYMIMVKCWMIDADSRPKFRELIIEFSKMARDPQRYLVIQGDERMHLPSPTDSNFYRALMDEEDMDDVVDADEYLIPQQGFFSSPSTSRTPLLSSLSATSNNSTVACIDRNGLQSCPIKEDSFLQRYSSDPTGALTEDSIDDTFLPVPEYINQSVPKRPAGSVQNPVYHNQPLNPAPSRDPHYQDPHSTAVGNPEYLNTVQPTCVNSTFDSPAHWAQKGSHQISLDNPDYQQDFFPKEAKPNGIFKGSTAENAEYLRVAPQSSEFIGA

`CC(C)c1ccc(OCCc2cncn2C)c2cnc(Nc3ccnc(N4CC[C@](C)(O)[C@H](F)C4)n3)cc12` [Example 38, (3R,4S)-3-fluoro-1-(4-((5-isopropyl-8-(2-(1-methyl-1H-imidazol-5-yl)ethoxy)isoquinolin-3-yl)amino)pyrimidin-2-yl)-4-methylpiperidin-4-ol]: the half-inhibitory concentration (IC50) is 15 to 20 nM on EGFR (L858R T790M C797S) and over 50 nM in assay [1].
As for `CC(C)c1ccc(OCCn2cncn2)c2cnc(Nc3ccnc(N4CC[C@](C)(O)[C@H](F)C4)n3)cc12` [Example 39, (3R,4S)-1-(4-((8-(2-(1H-1,2,4-triazol-1-yl)ethoxy)-5-isopropylisoquinolin-3-yl)amino)pyrimidin-2-yl)-3-fluoro-4-methylpiperidin-4-ol], the IC50 on EGFR (L858R T790M C797S) is 15 to 20 nM; in assay [1], over 50 nM.
The matching figures for `CO[C@@H]1CCN(c2nccc(Nc3cc4c(C(C)C)ccc(OCCn5cnnc5)c4cn3)n2)C[C@@H]1F` [Example 40, 8-(2-(4H-1,2,4-triazol-4-yl)ethoxy)-N-(2-((3S,4R)-3-fluoro-4-methoxypiperidin-1-yl)pyrimidin-4-yl)-5-isopropylisoquinolin-3-amine]: under 15 nM and over 50 nM.
With `CO[C@H]1CCN(c2nccc(Nc3cc4c(C(C)C)ccc(OCCn5cnnc5)c4cn3)n2)C[C@H]1F` [Example 41, 8-(2-(4H-1,2,4-triazol-4-yl)ethoxy)-N-(2-((3R,4S)-3-fluoro-4-methoxypiperidin-1-yl)pyrimidin-4-yl)-5-isopropylisoquinolin-3-amine], the IC50 on EGFR (L858R T790M C797S) is under 15 nM; in assay [1], 20 to 30 nM.
The matching figures for `Cc1noc(C)c1CCOc1ccc(C(C)C)c2cc(Nc3ccnc(N4CC[C@@H](OCCO)[C@@H](F)C4)n3)ncc12` [Example 43, 2-(((3S,4R)-1-(4-((8-(2-(3,5-dimethylisoxazol-4-yl)ethoxy)-5-isopropylisoquinolin-3-yl)amino)pyrimidin-2-yl)-3-fluoropiperidin-4-yl)oxy)ethan-1-ol]: 15 to 20 nM and over 50 nM.
In the same order, the values of `[2H]C([2H])([2H])O[C@H]1CCN(c2nccc(Nc3cc4c(C(C)C)ccc(OCCn5cnnc5)c4cn3)n2)C[C@H]1F` [Example 44, 8-(2-(4H-1,2,4-triazol-4-yl)ethoxy)-N-(2-((3R,4S)-3-fluoro-4-(methoxy-d3)piperidin-1-yl)pyrimidin-4-yl)-5-isopropylisoquinolin-3-amine] are 15 to 20 nM and over 50 nM.
The matching figures for `[2H]C([2H])([2H])O[C@@H]1CCN(c2nccc(Nc3cc4c(C(C)C)ccc(OCCn5cnnc5)c4cn3)n2)C[C@@H]1F` [Example 45, 8-(2-(4H-1,2,4-triazol-4-yl)ethoxy)-N-(2-((3S,4R)-3-fluoro-4-(methoxy-d3)piperidin-1-yl)pyrimidin-4-yl)-5-isopropylisoquinolin-3-amine]: 15 to 20 nM and over 50 nM.
Turning to `[2H]C([2H])([2H])O[C@H]1CCN(c2nccc(Nc3cc4c(C(C)C)ccc(OC[C@H]5CCC(=O)N5C)c4cn3)n2)C[C@H]1F` [Example 46, (R)-5-(((3-((2-((3R,4S)-3-fluoro-4-(methoxy-d3)piperidin-1-yl)pyrimidin-4-yl)amino)-5-isopropylisoquinolin-8-yl)oxy)methyl)-1-methylpyrrolidin-2-one], the IC50 on EGFR (L858R T790M C797S) was 15 to 20 nM; in assay [1], over 50 nM.
The matching figures for `[2H]C([2H])([2H])O[C@@H]1CCN(c2nccc(Nc3cc4c(C(C)C)ccc(OC[C@H]5CCC(=O)N5C)c4cn3)n2)C[C@@H]1F` [Example 47, (R)-5-(((3-((2-((3S,4R)-3-fluoro-4-(methoxy-d3)piperidin-1-yl)pyrimidin-4-yl)amino)-5-isopropylisoquinolin-8-yl)oxy)methyl)-1-methylpyrrolidin-2-one]: 15 to 20 nM and over 50 nM.
The matching figures for `[2H]C([2H])([2H])O[C@H]1CCN(c2nccc(Nc3cc4c(C(C)C)ccc(OCCn5ccnc5)c4cn3)n2)C[C@H]1F` [Example 48, 8-(2-(1H-imidazol-1-yl)ethoxy)-N-(2-((3R,4S)-3-fluoro-4-(methoxy-d3)piperidin-1-yl)pyrimidin-4-yl)-5-isopropylisoquinolin-3-amine]: 15 to 20 nM and over 50 nM.
With `[2H]C([2H])([2H])O[C@@H]1CCN(c2nccc(Nc3cc4c(C(C)C)ccc(OCCn5ccnc5)c4cn3)n2)C[C@@H]1F` [Example 49, 8-(2-(1H-imidazol-1-yl)ethoxy)-N-(2-((3S,4R)-3-fluoro-4-(methoxy-d3)piperidin-1-yl)pyrimidin-4-yl)-5-isopropylisoquinolin-3-amine], the values for the IC50 (on EGFR (L858R T790M C797S); in assay [1]) were 15 to 20 nM and over 50 nM, respectively.
Consider `CC(C)c1ccc(OC[C@@H]2COC(=O)N2C)c2cnc(Nc3ccnc(N4CC[C@@H](OCCN(C)C)[C@@H](F)C4)n3)cc12` [Example 53, (R)-4-(((3-((2-((3S,4R)-4-(2-(dimethylamino)ethoxy)-3-fluoro-piperidin-1-yl)pyrimidin-4-yl)amino)-5-isopropylisoquinolin-8-yl)oxy)methyl)-3-methyloxazolidin-2-one], for which the values for the 50% inhibitory concentration (IC50) (on EGFR (L858R T790M C797S); in assay [1]) were 15 to 20 nM and over 50 nM, respectively.
In the same order, the values of `CNCCO[C@@H]1CCN(c2nccc(Nc3cc4c(C(C)C)ccc(OC[C@@H]5COC(=O)N5C)c4cn3)n2)C[C@@H]1F` [Example 54, (R)-4-(((3-((2-((3S,4R)-3-fluoro-4-(2-(methylamino)ethoxy)piperidin-1-yl)pyrimidin-4-yl)amino)-5-isopropylisoquinolin-8-yl)oxy)methyl)-3-methyloxazolidin-2-one] are 15 to 20 nM and over 50 nM.
The matching figures for `CO[C@@H]1CCN(c2nccc(Nc3cc4c(C(C)C)ncc(OCCn5cnnc5)c4cn3)n2)C[C@@H]1F` [Example 55, 8-(2-(4H-1,2,4-triazol-4-yl)ethoxy)-N-(2-((3S,4R)-3-fluoro-4-methoxypiperidin-1-yl)pyrimidin-4-yl)-5-isopropyl-2,6-naphthyridin-3-amine]: 15 to 20 nM and over 50 nM.
The matching figures for `CC(C)c1cnc(C(=O)NC2CN(C)C2)c2cnc(Nc3ccnc(N4CC[C@@H](O)[C@@](C)(F)C4)n3)cc12` [Example 59, 6-((2-((3S,4R)-3-fluoro-4-hydroxy-3-methylpiperidin-1-yl)pyrimidin-4-yl)amino)-4-isopropyl-N-(1-methylazetidin-3-yl)-2,7-naphthyridine-1-carboxamide]: under 15 nM and 30 to 50 nM.
In the case of `CC(C)c1cnc(C(=O)NC2COC2)c2cnc(Nc3ccnc(N4CC[C@@H](O)[C@@](C)(F)C4)n3)cc12` [Example 60, 6-((2-((3S,4R)-3-fluoro-4-hydroxy-3-methylpiperidin-1-yl)pyrimidin-4-yl)amino)-4-isopropyl-N-(oxetan-3-yl)-2,7-naphthyridine-1-carboxamide], the IC50 at EGFR (L858R T790M C797S) was 15 to 20 nM; in assay [1] it was 30 to 50 nM.
Consider `CC(C)c1cnc(C(=O)NCCF)c2cnc(Nc3ccnc(N4CC[C@@H](O)[C@@](C)(F)C4)n3)cc12` [Example 62, 6-((2-((3S,4R)-3-fluoro-4-hydroxy-3-methylpiperidin-1-yl)pyrimidin-4-yl)amino)-N-(2-fluoroethyl)-4-isopropyl-2,7-naphthyridine-1-carboxamide], for which the results for the IC50 (on EGFR (L858R T790M C797S); in assay [1]) were under 15 nM and over 50 nM, respectively.
